Test results as given in patent US10501455B2, “Inhibitors of leukotriene A4 hydrolase” (Celtaxsys, Inc., priority 2013, dated 2019).

Assays:
LTA4-h hydrolase = target: T1, LTA4-h hydrolase (Homo sapiens, UniProt P09960); assay: Whole blood assay (WBA); assay type: cell-based
T1 construct: endogenous in cells; host or cells: whole blood
T1 sequence (P09960 1-611): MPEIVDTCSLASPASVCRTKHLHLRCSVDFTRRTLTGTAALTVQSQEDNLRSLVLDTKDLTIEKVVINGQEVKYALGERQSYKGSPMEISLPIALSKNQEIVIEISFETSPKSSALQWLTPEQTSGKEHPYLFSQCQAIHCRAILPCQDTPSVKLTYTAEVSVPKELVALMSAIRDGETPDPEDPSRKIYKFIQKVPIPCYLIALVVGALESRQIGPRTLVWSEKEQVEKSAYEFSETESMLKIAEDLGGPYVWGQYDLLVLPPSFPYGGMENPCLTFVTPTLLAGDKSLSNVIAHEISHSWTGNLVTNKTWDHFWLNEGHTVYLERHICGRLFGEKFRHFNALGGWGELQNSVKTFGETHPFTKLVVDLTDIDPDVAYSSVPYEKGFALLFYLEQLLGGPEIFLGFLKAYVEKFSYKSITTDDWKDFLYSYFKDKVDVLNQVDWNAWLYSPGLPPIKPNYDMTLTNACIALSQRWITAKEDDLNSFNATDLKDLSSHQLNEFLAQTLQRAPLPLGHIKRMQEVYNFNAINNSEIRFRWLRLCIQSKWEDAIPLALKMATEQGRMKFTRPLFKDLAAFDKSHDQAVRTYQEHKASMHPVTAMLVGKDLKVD
Procedure: Compounds of the invention can also be tested for their ability as inhibitors of LTA4-h hydrolase in the whole blood assay using human, mouse, rat or dog whole blood (see Penning, T. D. et al., J. Med. Chem. (2000), 43(4): 721-735 for a description of a human whole blood assay and a mouse whole blood assay, the contents of which are expressly incorporated herein). […] The whole blood and aminopeptidase assays were performed as described in Penning et al., J. Med. Chem. 2000, 43, 721-735, and Rudberg et al., J. Biol. Chem. Vol. 279, No. 26, Issue of June 25, pp. 27376-27382, 2004, the contents of each of which are expressly incorporated by reference herein. The hydrolase assay was performed as described in U.S. Pat. No. 7,737,145, the contents of which are expressly incorporated herein.

LTA4-h [1] = target: T2, LTA4-h (Homo sapiens, UniProt P09960); assay: Peptidase (aminopeptidase) assay; assay type: biochemical; conditions: for inhibition at 3 µM: read-out: Peptidase % inhibition
T2 sequence (P09960 1-611): T1 sequence (P09960 1-611)
Procedure: Since LTA4-h hydrolase is grouped with the M1 family of zinc metalloproteases (see, Rudberg, P. C. et al., J. Biol. […] The whole blood and aminopeptidase assays were performed as described in Penning et al., J. Med.

LTA4-h [2] = target: T2, LTA4-h; assay: Hydrolase assay (hydrolase-homogeneous time resolved fluorescence, LTB4 produced); assay type: biochemical
Description: The compounds of the invention can be tested for their ability to inhibit LTA4-h by various known assays and by assays described herein. For example, the compounds can be tested for their ability to inhibit LTA4-h activity by assaying the compounds in the hydrolase-homogeneous time resolved fluoroescence assay. This assay, which is a two-step assay, measures the hydrolysis of […] to LTB4 by analyzing the amount of LTB4 produced. The first step involves the enzymatic conversion of […] to LTB4 and the second step involves the quantification of the […] with a homogeneous time resolved fluoroescence assay.
The whole blood and aminopeptidase assays were performed as described in Penning et al., J. Med. Chem. 2000, 43, 721-735, and Rudberg et al., J. Biol. Chem. Vol. 279, No. 26, Issue of June 25, pp. 27376-27382, 2004, the contents of each of which are expressly incorporated by reference herein. The hydrolase assay was performed as described in U.S. Pat. No. 7,737,145, the contents of which are expressly incorporated herein.

| Compound | IC50 (LTA4-h hydrolase) [nM] | IC50 (LTA4-h [1]) [nM] | IC50 (LTA4-h [2]) [nM] | further results |
| --- | --- | --- | --- | --- |
| COC(=O)c1ccc(CN(CC2CCN(Cc3ccc(F)cc3)C2)c2ccc(Oc3ccc(Cl)cc3)cc2)cc1 (stereo not shown) [Compound 13] | 2770 | 100 |  |  |
| CC(C)(C)OC(=O)N1CCC[C@H]1CN(Cc1ccc(S(N)(=O)=O)cc1)c1ccc(Oc2ccc(Cl)cc2)cc1 [Compound 43] |  |  |  | inhibition at 1 µM (LTA4-h [1]; at 1 uM): 0% |
| COC(=O)c1cccc(CN(CC2CCN(C(=O)OC(C)(C)C)C2)c2ccc(Oc3ccc(Cl)cc3)cc2)c1 (stereo not shown) [Compound 33] |  |  |  | inhibition at 3 µM (LTA4-h [1]; at 3 uM): 22% |
| CC(C)(C)OC(=O)CN(CC1CCN(C(=O)OC(C)(C)C)C1)c1ccc(Oc2ccc(Cl)cc2)cc1 (stereo not shown) [Compound 27] |  |  |  | inhibition at 3 µM (LTA4-h [1]; at 3 uM): 7% |
| COC(=O)c1coc(CN(CC2CCNC2)c2ccc(Oc3ccc(Cl)cc3)cc2)n1 (stereo not shown) [Compound 40] |  | 125 |  |  |
| Clc1ccc(Oc2ccc(NC3CNC3)cc2)cc1 [Compound 5] | 920 | 31 | 300 |  |
| O=C(O)c1ccc(CN2CCC(CN(Cc3ccccc3)c3ccc(Oc4ccc(Cl)cc4)cc3)C2)cc1 (stereo not shown) [Compound 25] | 520 | 370 | 1550 |  |
| COC(=O)c1ccc(CN2CCC(CN(Cc3ccc(F)cc3)c3ccc(Oc4ccc(Cl)cc4)cc3)C2)cc1 (stereo not shown) [Compound 22] |  |  |  | inhibition at 3 µM (LTA4-h [1]; at 3 uM): 59% |
| COC(=O)c1ccc(CN(CC2CCN(Cc3ccccc3)C2)c2ccc(Oc3ccc(Cl)cc3)cc2)cc1 (stereo not shown) [Compound 14] |  | 200 |  |  |
| Clc1ccc(Oc2ccc(NC3CC4CCC(C3)N4)cc2)cc1 (stereo not shown) [Compound 6] | 1900 | 160 | 360 |  |
| CC(C)(C)OC(=O)N1CCC(CN(Cc2ccccc2)c2ccc(Oc3ccc(Cl)cc3)cc2)C1 (stereo not shown) [Compound 18] |  |  |  | inhibition at 3 µM (LTA4-h [1]; at 3 uM): 0% |
| COC(=O)c1ccc(CN(CC2CCN(C(=O)OC(C)(C)C)C2)c2ccc(Oc3ccc(Cl)cc3)cc2)cc1 (stereo not shown) [Compound 9] |  |  |  | inhibition at 3 µM (LTA4-h [1]; at 3 uM): 56% |
| O=C(O)c1ccc(CN2CCC(CN(Cc3ccc(F)cc3)c3ccc(Oc4ccc(Cl)cc4)cc3)C2)cc1 (stereo not shown) [Compound 24] |  | 530 | 870 |  |
| Clc1ccc(Oc2ccc(NCC3CCCCN3)cc2)cc1 (stereo not shown) [Compound 2] | 880 | 72 | 190 |  |
| CC(C)(C)OC(=O)N1CCC(CN(Cc2ccc(F)cc2)c2ccc(Oc3ccc(Cl)cc3)cc2)C1 (stereo not shown) [Compound 19] |  |  |  | inhibition at 3 µM (LTA4-h [1]; at 3 uM): 47% |
| Clc1ccc(Oc2ccc(NCC3CNC3)cc2)cc1 [Compound 4] | 90 | 1.7 | 7.9 |  |
| O=C(O)c1ccc(CN(CC2CCN(Cc3ccc(F)cc3)C2)c2ccc(Oc3ccc(Cl)cc3)cc2)cc1 (stereo not shown) [Compound 16] |  | 1600 | 2200 |  |
| O=C(O)CN(CC1CCNC1)c1ccc(Oc2ccc(Cl)cc2)cc1 (stereo not shown) [Compound 29] | 920 | 22 | 320 |  |
| Clc1ccc(Oc2ccc(NCC3CCNC3)cc2)cc1 (stereo not shown) [Compound 1] | 510 | 45 | 26 |  |
| O=C(O)c1ccc(CN2CC(Nc3ccc(Oc4ccc(Cl)cc4)cc3)C2)cc1 [Compound 7] | 57 | 4 | 5 |  |
| O=C(O)c1ccc(CN(CC2CCN(Cc3ccccc3)C2)c2ccc(Oc3ccc(Cl)cc3)cc2)cc1 (stereo not shown) [Compound 17] |  | 1500 |  |  |
| COC(=O)c1cccc(CN(CC2CNC2)c2ccc(Oc3ccc(Cl)cc3)cc2)c1 [Compound 35] |  | 33 |  |  |
| O=C(O)c1ccc(CN2CCC(CN(Cc3ccc(C(=O)O)cc3)c3ccc(Oc4ccc(Cl)cc4)cc3)C2)cc1 (stereo not shown) [Compound 3] | > 3000 | 88 | 300 |  |
| COC(=O)c1ccc(CN(CC2CN(C(=O)OC(C)(C)C)C2)c2ccc(Oc3ccc(Cl)cc3)cc2)cc1 [Compound 26] |  |  |  | inhibition at 3 µM (LTA4-h [1]; at 3 uM): 42% |
| Clc1ccc(Oc2ccc(NC[C@@H]3CCCN3)cc2)cc1 [Compound 42] |  | 70 |  |  |
| CC(C)(C)OC(=O)N1CCC(CN(Cc2ccc([N+](=O)[O-])cc2)c2ccc(Oc3ccc(Cl)cc3)cc2)C1 (stereo not shown) [Compound 39] |  |  |  | inhibition at 3 µM (LTA4-h [1]): 19% |
| COC(=O)c1ccc(CN2CCC(CN(Cc3ccccc3)c3ccc(Oc4ccc(Cl)cc4)cc3)C2)cc1 (stereo not shown) [Compound 23] |  |  |  | inhibition at 3 µM (LTA4-h [1]; at 3 uM): 40% |

The next lines start with results.

| IC50 (LTA4-h hydrolase) [nM] | IC50 (LTA4-h [1]) [nM] | IC50 (LTA4-h [2]) [nM] | Compound | further results |
| --- | --- | --- | --- | --- |
|  | 26 | 12 | NS(=O)(=O)c1ccc(CN(CC2CCNC2)c2ccc(Oc3ccc(Cl)cc3)cc2)cc1 (stereo not shown) [Compound 38] |  |
|  | 110 |  | NS(=O)(=O)c1ccc(CN(C[C@@H]2CCCN2)c2ccc(Oc3ccc(Cl)cc3)cc2)cc1 [Compound 44] |  |
| 560 | 290 | 470 | CN1CCC(CN(Cc2ccc(C(=O)O)cc2)c2ccc(Oc3ccc(Cl)cc3)cc2)C1 (stereo not shown) [Compound 15] |  |
|  | 76 |  | COC(=O)c1cccc(CN(CC2CN(C(=O)OC(C)(C)C)C2)c2ccc(Oc3ccc(Cl)cc3)cc2)c1 [Compound 31] | inhibition at 3 µM (LTA4-h [2]; at 3 uM): > 5% |
|  | 62 |  | COC(=O)c1cccc(CN(CC2CCNC2)c2ccc(Oc3ccc(Cl)cc3)cc2)c1 (stereo not shown) [Compound 34] |  |
|  | 35 | 62 | O=C(O)c1cccc(CN(CC2CNC2)c2ccc(Oc3ccc(Cl)cc3)cc2)c1 [Compound 37] |  |
| 1600 | 240 | 1000 | O=C(O)c1ccc(CN(CC2CNC2)c2ccc(Oc3ccc(Cl)cc3)cc2)cc1 [Compound 30] |  |
| 670 | 140 | 70 | O=C(O)c1ccc(CN(CC2CCNC2)c2ccc(Oc3ccc(Cl)cc3)cc2)cc1 (stereo not shown) [Compound 11] |  |
| 800 | 46 | 170 | COC(=O)c1ccc(CN(CC2CNC2)c2ccc(Oc3ccc(Cl)cc3)cc2)cc1 [Compound 28] |  |
| 240 | 150 | 70 | COC(=O)c1ccc(CN(CC2CCN(C)C2)c2ccc(Oc3ccc(Cl)cc3)cc2)cc1 (stereo not shown) [Compound 12] |  |
|  | 60 | 12 | O=C(O)c1cccc(CN(CC2CCNC2)c2ccc(Oc3ccc(Cl)cc3)cc2)c1 (stereo not shown) [Compound 36] |  |
| 2800 | 12 | 1300 | CC(C)(C)OC(=O)N1CCC(CN(Cc2ccc(S(N)(=O)=O)cc2)c2ccc(Oc3ccc(Cl)cc3)cc2)C1 (stereo not shown) [Compound 32] |  |
| 260 | 13 | 22 | COC(=O)c1ccc(CN(CC2CCNC2)c2ccc(Oc3ccc(Cl)cc3)cc2)cc1 (stereo not shown) [Compound 10] |  |
| 950 | 165 | 140 | CN1CCC(CN(Cc2ccc(F)cc2)c2ccc(Oc3ccc(Cl)cc3)cc2)C1 (stereo not shown) [Compound 20] |  |
